As usually defined, the IC50 is the point on the concentration scale where inhibition reaches its midpoint.

From patent publication US10233173B2, “Substituted 1,2,3-triazoles as NR2B-selective NMDA modulators” (JANSSEN PHARMACEUTICA NV, priority 2016, dated 2019) come the findings set out here.

Chain of human GluN1/GluN2B NMDA receptors (Q13224 27-1484, other chains not shown): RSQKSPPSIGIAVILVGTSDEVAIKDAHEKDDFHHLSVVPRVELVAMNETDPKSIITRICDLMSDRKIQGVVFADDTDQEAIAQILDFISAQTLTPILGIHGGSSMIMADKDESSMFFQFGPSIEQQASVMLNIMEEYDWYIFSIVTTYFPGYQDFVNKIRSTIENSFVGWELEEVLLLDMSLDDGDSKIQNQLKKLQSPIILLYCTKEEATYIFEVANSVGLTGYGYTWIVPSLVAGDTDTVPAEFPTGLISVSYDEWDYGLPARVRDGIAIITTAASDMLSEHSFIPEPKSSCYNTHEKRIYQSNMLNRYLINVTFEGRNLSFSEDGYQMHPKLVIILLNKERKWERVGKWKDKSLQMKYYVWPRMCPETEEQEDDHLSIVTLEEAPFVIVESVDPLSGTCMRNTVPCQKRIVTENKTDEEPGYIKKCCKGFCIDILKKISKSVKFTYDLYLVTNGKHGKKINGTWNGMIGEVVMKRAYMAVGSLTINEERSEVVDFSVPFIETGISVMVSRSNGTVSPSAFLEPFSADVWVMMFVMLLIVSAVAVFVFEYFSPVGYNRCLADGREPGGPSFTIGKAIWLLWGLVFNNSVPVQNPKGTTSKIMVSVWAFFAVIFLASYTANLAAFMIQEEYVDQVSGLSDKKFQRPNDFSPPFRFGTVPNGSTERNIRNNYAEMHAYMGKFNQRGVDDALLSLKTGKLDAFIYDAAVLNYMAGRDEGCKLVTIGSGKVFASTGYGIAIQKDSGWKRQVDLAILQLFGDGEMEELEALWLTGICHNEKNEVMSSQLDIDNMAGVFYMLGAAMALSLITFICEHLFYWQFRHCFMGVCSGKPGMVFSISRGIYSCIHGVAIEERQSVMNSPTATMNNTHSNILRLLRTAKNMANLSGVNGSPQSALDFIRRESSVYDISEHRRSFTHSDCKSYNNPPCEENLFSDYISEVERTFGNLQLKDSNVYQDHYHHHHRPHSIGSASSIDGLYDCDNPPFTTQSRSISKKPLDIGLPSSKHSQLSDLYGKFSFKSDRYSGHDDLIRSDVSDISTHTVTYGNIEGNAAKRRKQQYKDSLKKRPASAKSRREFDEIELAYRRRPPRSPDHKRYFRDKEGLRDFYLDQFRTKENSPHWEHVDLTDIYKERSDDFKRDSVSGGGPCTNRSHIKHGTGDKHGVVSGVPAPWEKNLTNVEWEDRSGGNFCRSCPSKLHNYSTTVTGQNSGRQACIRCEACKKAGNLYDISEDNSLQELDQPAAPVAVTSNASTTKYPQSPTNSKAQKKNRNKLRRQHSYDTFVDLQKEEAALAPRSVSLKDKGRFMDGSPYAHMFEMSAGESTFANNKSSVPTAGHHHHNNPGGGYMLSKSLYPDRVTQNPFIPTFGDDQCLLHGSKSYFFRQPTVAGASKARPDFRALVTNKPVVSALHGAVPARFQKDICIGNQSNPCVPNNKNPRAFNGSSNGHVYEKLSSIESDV

The first experiment has as its target human GluN1/GluN2B NMDA receptors (Homo sapiens, UniProt Q05586+Q13224). In words: Cell-based calcium flux (FLIPR) assay on cloned human NR1/NR2B ion channels expressed in mammalian cells. The settings on record: standard assay; glutamate at ~EC80; FLIPR calcium flux. Here is the method:
Effects of Test Articles on Cloned Human NR1/NR2B Ion Channels Expressed in Mammalian Cells
NMDA receptors are ion channels that are highly permeable to Ca^2+ ions, rendering it possible to monitor NMDA receptor function using cell-based calcium flux assay. In this assay, co-agonists glutamate and glycine are added to cells heterologously expressing human GluN1/GluN2B NMDA receptors to initiate cellular Ca^2+ influx. The time course of the changes in intracellular calcium is measured using a fluorescent dye and a FLIPR (Fluorometric Imaging Plate Reader) device.
Twenty four hours before measurements, the expression of the NMDA receptors in the stable cell line is induced with Tet-On inducible system in the presence of a non-selective NMDA receptor blocker. On the day of the experiment, cell culture media is carefully washed and the cells are loaded with Calcium 5 Dye Kit (Molecular Devices) in dye loading buffer containing 149 mM NaCl, 4 mM KCl, 2 mM CaCl2, and 1.5 mM MgCl2, 10 mM HEPES and 5 mM D-glucose; pH 7.4. After 1 h incubation at the room temperature, the dye is washed away with the assay buffer (149 mM NaCl (standard assay) or 150 mM (HTS assay), 4 mM KCl (standard assay) or 3 mM (HTS assay), 2 mM CaCl2, 0.01 mM EDTA, 10 mM HEPES and 5 mM D-glucose; pH 7.4) In the FLIPR TETRA reader, various concentrations of the test compounds are added to the cells for 5 min while fluorescence is monitored to detect potential agonist activity. Next, co-agonists, glutamate and glycine are added for another 5 minutes. The concentration of glutamate corresponding to ˜EC80 (standard assay) or EC40 (HTS assay) is used to maximize the assay's signal window or the ability to detect NMDA receptor antagonists and negative allosteric modulators, respectively. A saturating concentration (10 μM) of glycine is also present in the assay. […] The fluorescent signal in the presence of test compounds is quantified and normalized to the signal defined by the appropriate control wells.
On the technique in general: A change in cytosolic calcium serves as a functional read-out for many receptors and channels.
Turning to `CC(O)(c1cnc(OCc2cn(-c3ccc(F)c(C(F)F)c3)nn2)nc1)C(F)(F)F` (racemic) [Example 404, (R/S)-2-[2-[[1-[3-(Difluoromethyl)-4-fluoro-phenyl]triazol-4-yl]methoxy]pyrimidin-5-yl]-1,1,1-trifluoro-propan-2-ol], the half-inhibitory concentration (IC50) came to 0.482 µM.
In the case of `CC(O)(c1cnc(OCc2cn(-c3ccc(F)c(C(F)(F)F)c3)nn2)nc1)C(F)(F)F` (racemic) [Example 441, (R/S)-1,1,1-Trifluoro-2-[2-[[1-[4-fluoro-3-(trifluoromethyl)phenyl]triazol-4-yl]methoxy]pyrimidin-5-yl]propan-2-ol], the IC50 worked out at 0.412 µM.
Same read-out and setting: to `CC(O)c1cnc(OCc2cn(-c3ccc(F)c(C(F)(F)F)c3)nn2)nc1` (racemic) [Example 448, (R/S)-1-[2-[[1-[4-Fluoro-3-(trifluoromethyl)phenyl]triazol-4-yl]methoxy]pyrimidin-5-yl]ethanol] belongs 0.031 µM; to `CC(F)(F)c1cc(-n2cc(COc3ncc(C(C)(O)C(F)(F)F)cn3)nn2)ccc1Cl` (racemic) [Example 539, (R/S)-2-[2-[[1-[4-Chloro-3-(1,1-difluoroethyl)phenyl]triazol-4-yl]methoxy]pyrimidin-5-yl]-1,1,1-trifluoro-propan-2-ol], 0.45 µM.
For the compound `CC(O)c1cnc(OCc2cn(-c3ccc(Cl)c(C(C)(F)F)c3)nn2)nc1` (racemic) [Example 551, (R/S)-1-[2-[[1-[4-Chloro-3-(1,1-difluoroethyl)phenyl]triazol-4-yl]methoxy]pyrimidin-5-yl]ethanol], the IC50 turned out to be 0.014 µM.
Still for that read-out and setting: with `CC(F)(F)c1cc(-n2cc(COc3ncc(C(C)(O)C(F)(F)F)cn3)nn2)ccc1F` (racemic) [Example 565, (R/S)-2-[2-[[1-[3-(1,1-Difluoroethyl)-4-fluoro-phenyl]triazol-4-yl]methoxy]pyrimidin-5-yl]-1,1,1-trifluoro-propan-2-ol] the figure was 0.308 µM.
On the same count and under the same terms, with `CC(O)c1cnc(OCc2cn(-c3ccc(F)c(C(C)(F)F)c3)nn2)nc1` (racemic) [Example 586, (R/S)-1-[2-[[1-[3-(1,1-Difluoroethyl)-4-fluoro-phenyl]triazol-4-yl]methoxy]pyrimidin-5-yl]ethanol] the figure was 0.014 µM.

Staying with this experiment, now noted: standard assay; human GluN1/GluN2B, calcium flux (FLIPR), glutamate ~EC80.
In the case of `CC(Oc1ncccn1)c1cn(-c2ccc(Cl)c(OC(F)F)c2)nn1` (racemic) [Example 53, (R/S)-2-[1-[1-[4-Chloro-3-(difluoromethoxy)phenyl]triazol-4-yl]ethoxy]pyrimidine], the IC50 came out at 0.026 µM.
Still for that read-out and setting: to `Cc1cnc(OC(C)c2cn(-c3ccc(Cl)c(OC(F)F)c3)nn2)nc1` (racemic) [Example 56, (R/S)-2-[1-[1-[4-Chloro-3-(difluoromethoxy)phenyl]triazol-4-yl]ethoxy]-5-methyl-pyrimidine] belongs 0.028 µM.
Same read-out and setting: with `Cc1ccnc(OC(C)c2cn(-c3ccc(Cl)c(OC(F)F)c3)nn2)n1` (racemic) [Example 59, (R/S)-2-[1-[1-[4-Chloro-3-(difluoromethoxy)phenyl]triazol-4-yl]ethoxy]-4-methyl-pyrimidine] the figure was 0.04 µM.
On to `CC(Oc1ncc(Cl)cn1)c1cn(-c2ccc(Cl)c(OC(F)F)c2)nn1` (racemic) [Example 60, (R/S)-5-Chloro-2-[1-[1-[4-chloro-3-(difluoromethoxy)phenyl]triazol-4-yl]ethoxy]pyrimidine], for which the IC50 was determined as 0.032 µM.
For `CC(O)c1cnc(OCc2cn(-c3ccc(F)c(C(F)F)c3)nn2)nc1` (racemic) [Example 157, (R/S)-1-[2-[[1-[3-(Difluoromethyl)-4-fluoro-phenyl]triazol-4-yl]methoxy]pyrimidin-5-yl]ethanol], the IC50 amounted to 0.018 µM.
On the same count and under the same terms, with `CC(N)c1ccnc(OCc2cn(-c3ccc(F)c(OC(F)F)c3)nn2)n1` (racemic) [Example 163, (R/S) 1-[2-[[1-[3-(Difluoromethoxy)-4-fluoro-phenyl]triazol-4-yl]methoxy]pyrimidin-4-yl]ethanamine] the figure was 1.4 µM.
Still for that read-out and setting: to `CC(F)(F)c1cccc(-n2cc(COc3ncc(C(C)(O)C(F)(F)F)cn3)nn2)c1` (racemic) [Example 305, (R/S)-2-[2-[[1-[3-(1,1-Difluoroethyl)phenyl]triazol-4-yl]methoxy]pyrimidin-5-yl]-1,1,1-trifluoro-propan-2-ol] belongs 0.496 µM.
Consider `CC(O)c1cnc(OCc2cn(-c3cccc(C(C)(F)F)c3)nn2)nc1` (racemic) [Example 310, (R/S)-1-[2-[[1-[3-(1,1-Difluoroethyl)phenyl]triazol-4-yl]methoxy]pyrimidin-5-yl]ethanol], for which the IC50 was 0.037 µM.
The same measure, in the same setting: to `COC(C)c1cnc(OCc2cn(-c3cccc(C(C)(F)F)c3)nn2)nc1` (racemic) [Example 311, (R/S)-2-[[1-[3-(1,1-Difluoroethyl)phenyl]triazol-4-yl]methoxy]-5-(1-methoxyethyl)pyrimidine] belongs 1.58 µM.
On the same count and under the same terms, with `CC(Oc1ncccn1)c1cn(-c2ccc(Cl)c(OC(F)F)c2)nn1` (single isomer, unassigned) [Example 54, (R*)-2-[1-[1-[4-Chloro-3-(difluoromethoxy)phenyl]triazol-4-yl]ethoxy]pyrimidine] the figure was 4.64 µM.
Still for that read-out and setting: to `CC(Oc1ncccn1)c1cn(-c2ccc(Cl)c(OC(F)F)c2)nn1` (single isomer, unassigned) [Example 55, (S*)-2-[1-[1-[4-Chloro-3-(difluoromethoxy)phenyl]triazol-4-yl]ethoxy]pyrimidine] belongs 0.008 µM; to `Cc1cnc(OC(C)c2cn(-c3ccc(Cl)c(OC(F)F)c3)nn2)nc1` (single isomer, unassigned) [Example 57, (R*)-2-[1-[1-[4-Chloro-3-(difluoromethoxy)phenyl]triazol-4-yl]ethoxy]-5-methyl-pyrimidine], 0.338 µM.
Take `Cc1cnc(OC(C)c2cn(-c3ccc(Cl)c(OC(F)F)c3)nn2)nc1` (single isomer, unassigned) [Example 58, (S*)-2-[1-[1-[4-Chloro-3-(difluoromethoxy)phenyl]triazol-4-yl]ethoxy]-5-methyl-pyrimidine]: the 50% inhibitory concentration (IC50) amounted to 0.007 µM.
In the case of `FC(F)c1cc(-n2cc(COc3ncccn3)nn2)ccc1Cl` [Example 1, 2-((1-(4-Chloro-3-(difluoromethyl)phenyl)-1H-1,2,3-triazol-4-yl)methoxy)pyrimidine], the 50% inhibitory concentration (IC50) is 0.049 µM.
The same measure, in the same setting: with `FC(F)Oc1cc(-n2cc(CNc3ccccn3)nn2)ccc1Cl` [Example 2, N-((1-(4-Chloro-3-(difluoromethoxy)phenyl)-1H-1,2,3-triazol-4-yl)methyl)pyridin-2-amine] the figure was 0.213 µM; with `Fc1ccc(-n2cc(CNc3ncccn3)nn2)cc1C(F)(F)F` [Example 3, N-[[1-[4-Fluoro-3-(trifluoromethyl)phenyl]triazol-4-yl]methyl]pyrimidin-2-amine], 2.8 µM; with `Fc1ccc(-n2cc(COc3ccccn3)nn2)cc1OC(F)F` [Example 4, 2-[[1-[3-(Difluoromethoxy)-4-fluoro-phenyl]triazol-4-yl]methoxy]pyridine], 0.392 µM.
The same measure, in the same setting: with `FC(F)Oc1cc(-n2cc(COc3cccnc3)nn2)ccc1Cl` [Example 5, 3-[[1-[4-Chloro-3-(difluoromethoxy)phenyl]triazol-4-yl]methoxy]pyridine] the figure was 0.333 µM; with `FC(F)c1cccc(-n2cc(CNc3ncccn3)nn2)c1` [Example 6], 10.6 µM; with `Cn1ccnc1NCc1cn(-c2ccc(F)c(OC(F)F)c2)nn1` [Example 7, N-[[1-[3-(Difluoromethoxy)-4-fluoro-phenyl]triazol-4-yl]methyl]-1-methyl-imidazol-2-amine], 1.87 µM.
Turning to `Cc1cccc(OCc2cn(-c3ccc(F)c(OC(F)F)c3)nn2)n1` [Example 8, 2-[[1-[3-(Difluoromethoxy)-4-fluoro-phenyl]triazol-4-yl]methoxy]-6-methyl-pyridine], the IC50 turned out to be 0.022 µM.
Still for that read-out and setting: to `Fc1ccc(-n2cc(COc3ncccn3)nn2)cc1Br` [Example 9, 2-[[1-(3-Bromo-4-fluoro-phenyl)triazol-4-yl]methoxy]pyrimidine] belongs 0.02 µM.
Regarding `FC(F)Oc1cc(-n2cc(COc3ncccn3)nn2)ccc1Cl` [Example 10, 2-[[1-[4-Chloro-3-(difluoromethoxy)phenyl]triazol-4-yl]methoxy]pyrimidine], the IC50 came to 0.01 µM.
The same measure, in the same setting: with `FC(F)c1cc(-n2cc(COc3ccccn3)nn2)ccc1Cl` [Example 11, 2-[[1-[4-Chloro-3-(difluoromethyl)phenyl]triazol-4-yl]methoxy]pyridine] the figure was 1.2 µM.
In the case of `FC(F)c1cc(-n2cc(COc3ccncn3)nn2)ccc1Cl` [Example 12, 4-[[1-[4-Chloro-3-(difluoromethyl)phenyl]triazol-4-yl]methoxy]pyrimidine], the 50% inhibitory concentration (IC50) came out at 2.23 µM.
